Measured values taken from patent publication US20100029775A1, “RENIN INHIBITORS FOR THE PREVENTION AND TREATMENT OF HYPERTENSION IN OBESE PATIENTS” (priority 2006, published 2010).
Marks after values point to notes of the source that are not given here.

Test system: obese patients with hypertension
Assay: Randomized, double-blind, multicenter clinical study: add-on treatment in grade 3 obese hypertensive patients who did not respond to HCTZ 25 mg
Type: in vivo, human
Conditions: for BP control rate (in words): grade 3 obesity patients, comparison between treatment groups
Source text: The effect of Aliskiren to treat hypertension in patients with obesity was investigated in a clinical study. […] [table]

[1] = Grade 3 obesity (BMI ≧ 40 kg/m^2), least squares mean ± SEM change from baseline at wk 12 endpoint (ANCOVA; intent-to-treat), add-on to HCTZ 25 mg, dose doubled after 4 weeks

SMILES	Change in DBP, mmHg [1] [mmHg]	Change in SBP, mmHg [1] [mmHg]	BP control rate (Grade 3 obesity (BMI ≧ 40 kg/m^2), patients reaching <140/90 mmHg, wk 12 endpoint, logistic regression model) [%**]	BP control rate (in words)
NS(=O)(=O)c1cc2c(cc1Cl)NCNS2(=O)=O [PBO/HCTZ, hydrochlorothiazide]	−5.9 ± 2.2	−7.1 ± 3.2	16.7	lower control rates
COCCCOc1cc(C[C@@H](C[C@H](N)[C@@H](O)C[C@H](C(=O)NCC(C)(C)C(N)=O)C(C)C)C(C)C)ccc1OC [aliskiren, 2(S),4(S),5(S),7(S)—N-(3-amino-2,2-dimethyl-3-oxopropyl)-2,7-di(1-methylethyl)-4-hydroxy-5-amino-8-[4-methoxy-3-(3-methoxy-propoxy)phenyl]-octanamide]	–	–	–	highly effective BP control
